Calls of active or inactive are those of the source. No rule for the calls is given here.
System: rodent carcinogenicity bioassays, tumor incidence
Test: CCRIS carcinogenicity studies
How it was run: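 NCI-built, expert-reviewed records of carcinogenicity and related test outcomes (mutagenicity, tumor promotion/inhibition) compiled from published and report sources, historical span 1985-2011, not updated.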

With `[O]=[Cd]` the carcinogen call (Species: HAMSTER, Strain/Sex: SYRIAN/MALE, Route: INHALATION, Dose: 0, 10 UG/M3 19 HR/D 5 D/WK FOR 65 WK FOR A TOTAL CADMIUM DOSE OF 0, 63 MG/M3 (STUDY DURATION: 113 WK), Dose: 0, 10 UG/M3 19 HR/D 5 D/WK FOR 65 WK FOR A TOTAL CADMIUM DOSE OF 0, 63 MG/M3 (STUDY DURATION: 113 WK)) was “inactive; negative”, the carcinogen call (Species: HAMSTER, Strain/Sex: SYRIAN/MALE, Route: INHALATION, Dose: 0, 90 UG/M3 8 HR/D 5 D/WK FOR 65 WK FOR A TOTAL CADMIUM DOSE OF 0, 216 MG/M3 (STUDY DURATION: 113 WK), Dose: 0, 90 UG/M3 8 HR/D 5 D/WK FOR 65 WK FOR A TOTAL CADMIUM DOSE OF 0, 216 MG/M3 (STUDY DURATION: 113 WK)) was “inactive; negative” and the carcinogen call (Species: HAMSTER, Strain/Sex: SYRIAN/MALE, Route: INHALATION, Dose: 0, 270 UG/M3 8 HR/D 5 D/WK FOR 53 WK FOR A TOTAL CADMIUM DOSE OF 0, 522 MG/M3 (STUDY DURATION: 70 WK), Dose: 0, 270 UG/M3 8 HR/D 5 D/WK FOR 53 WK FOR A TOTAL CADMIUM DOSE OF 0, 522 MG/M3 (STUDY DURATION: 70 WK)) was “inactive; negative”. The carcinogen call (Species: RAT, Strain/Sex: FEMALE, Route: SUBCUTANEOUS, Dose: 25 MG ONCE, Tumor Site: Type of Lesion: INJECTION SITE: SARCOMA) was “active; positive”, the carcinogen call (Species: RAT, Strain/Sex: FEMALE, Route: SUBCUTANEOUS, Dose: 25 MG, SINGLE DOSE, Tumor Site: Type of Lesion: INJECTION SITE) was “active; positive” and the carcinogen call (Species: RAT, Strain/Sex: WISTAR/FEMALE, Route: INHALATION, Dose: 0, 30 UG/M3 8 HR/D,5D/WK FOR 18 MO (STUDY DURATION: 18 MO)) was “inactive; negative”. The carcinogen call (Species: RAT, Strain/Sex: WISTAR/FEMALE, Route: INHALATION, Dose: 0, 30 UG/M3 CADMIUM OXIDE DUST 22 HR/D 7 D/WK FOR 18 MO (STUDY DURATION: 31 MO), Tumor Site: Type of Lesion: LUNG: TUMOR) was “active; positive”, the carcinogen call (Species: RAT, Strain/Sex: WISTAR/FEMALE, Route: INHALATION, Dose: 0, 30 UG/M3 DUST 22 HR/D 7 D/WK FOR 18 MO (STUDY DURATION: 31 MO), Tumor Site: Type of Lesion: LUNG: ALVEOLAR/BRONCHIOLAR ADENOMA, ADENOCARCINOMA, SQUAMOUS CELL CARCINOMA) was “active; positive” and the carcinogen call (Species: RAT, Strain/Sex: WISTAR/FEMALE, Route: INHALATION, Dose: 0, 30 UG/M3 OF CADMIUM OXIDE DUST 22 HR/D 7 D/WK FOR 18 MO (STUDY DURATION: 31 MO), Tumor Site: Type of Lesion: LUNG: ALVEOLAR/BRONCHIOLAR ADENOMA, ADENOCARCINOMA, SQUAMOUS CELL CARCINOMA) was “active; positive”. The carcinogen call (Species: RAT, Strain/Sex: WISTAR/FEMALE, Route: INHALATION, Dose: 0, 90 UG/M3 CADMIUM OXIDE DUST 22 HR/D 7 D/WK FOR 4 MO (STUDY DURATION: 31 MO), Tumor Site: Type of Lesion: LUNG: TUMOR) was “active; positive”, the carcinogen call (Species: RAT, Strain/Sex: WISTAR/FEMALE, Route: INHALATION, Dose: 0, 90 UG/M3 CADMIUM OXIDE DUST DISCONTINOUS EXPOSURE FOR 40 HR/WK FOR 6 MO (STUDY DURATION: 31 MO), Tumor Site: Type of Lesion: LUNG: TUMOR) was “active; positive” and the carcinogen call (Species: RAT, Strain/Sex: WISTAR/FEMALE, Route: INHALATION, Dose: 0, 90 UG/M3 DUST 8 HR/D 5 D/WK FOR 6 MO (STUDY DURATION: 31 MO), Tumor Site: Type of Lesion: LUNG: ADENOCARCINOMA, SQUAMOUS CELL CARCINOMA) was “active; positive”. The carcinogen call (Species: RAT, Strain/Sex: WISTAR/FEMALE, Route: INHALATION, Dose: 0, 90 UG/M3 DUST 22 HR/D 7 D/WK FOR 11 MO (STUDY DURATION: 31 MO), Tumor Site: Type of Lesion: LUNG: ALVEOLAR/BRONCHIOLAR ADENOMA, ADENOCARCINOMA, SQUAMOUS CELL CARCINOMA) was “active; positive”, the carcinogen call (Species: RAT, Strain/Sex: WISTAR/FEMALE, Route: INHALATION, Dose: 0, 90 UG/M3 OF CADMIUM OXIDE DUST 22 HR/D 7 D/WK FOR 11 MO (STUDY DURATION: 31 MO), Tumor Site: Type of Lesion: LUNG: ALVEOLAR/BRONCHIOLAR ADENOMA, ADENOCARCINOMA, SQUAMOUS CELL CARCINOMA) was “active; positive” and the carcinogen call (Species: RAT, Strain/Sex: WISTAR/FEMALE, Route: INHALATION, Dose: 0, 90 UG/M3 OF CADMIUM OXIDE DUST 40 HR/WK FOR 6 MO (STUDY DURATION: 31 MO)) was “inactive; negative”. For the same compound, the carcinogen call (Species: RAT, Strain/Sex: WISTAR/MALE, Route: INHALATION, Dose: 0, 10 UG/M3 CADMIUM OXIDE FUME 22 HR/D 7 D/WK FOR 18 MO (STUDY DURATION: 31 MO)) was “inactive; negative”, the carcinogen call (Species: RAT, Strain/Sex: WISTAR/MALE, Route: INHALATION, Dose: 0, 10 UG/M3 FUME 22 HR/D 7 D/WK FOR 18 MO (STUDY DURATION: 31 MO)) was “inactive; negative” and the carcinogen call (Species: RAT, Strain/Sex: WISTAR/MALE, Route: INHALATION, Dose: 0, 10 UG/M3 OF CADMIUM OXIDE FUME 22 HR/D 7 D/WK FOR 18 MO (STUDY DURATION: 31 MO)) was “inactive; negative”. For the same compound, the carcinogen call (Species: RAT, Strain/Sex: WISTAR/MALE, Route: INHALATION, Dose: 0, 30 UG/M3 CADMIUM OXIDE DUST 22 HR/D 7 D/WK FOR 18 MO (STUDY DURATION: 31 MO), Tumor Site: Type of Lesion: LUNG: ADENOMA OR ADENOCARCINOMA OR SQUAMOUS CELL TUMOR OR ADENOSQUAMOUS CARCINOMA) was “active; positive”, the carcinogen call (Species: RAT, Strain/Sex: WISTAR/MALE, Route: INHALATION, Dose: 0, 30 UG/M3 CADMIUM OXIDE DUST 22 HR/D 7 D/WK FOR 18 MO (STUDY DURATION: 31 MO), Tumor Site: Type of Lesion: LUNG: TUMOR) was “active; positive” and the carcinogen call (Species: RAT, Strain/Sex: WISTAR/MALE, Route: INHALATION, Dose: 0, 30 UG/M3 CADMIUM OXIDE DUST 22 HR/D 7 D/WK FOR 18 MO ADMINISTERED TO RATS MAINTAINED ON ZINC REDUCED (24 PPM) DIET (S, Tumor Site: Type of Lesion: LUNG: TUMOR) was “active; positive”. For the same compound, the carcinogen call (Species: RAT, Strain/Sex: WISTAR/MALE, Route: INHALATION, Dose: 0, 30 UG/M3 CADMIUM OXIDE FUME 22 HR/D 7 D/WK FOR 18 MO (STUDY DURATION: 31 MO), Tumor Site: Type of Lesion: LUNG: TUMOR) was “active; positive”, the carcinogen call (Species: RAT, Strain/Sex: WISTAR/MALE, Route: INHALATION, Dose: 0, 30 UG/M3 DUST 22 HR/D 7 D/WK FOR 18 MO (STUDY DURATION: 31 MO), Tumor Site: Type of Lesion: LUNG: ALVEOLAR/BRONCHIOLAR ADENOMA, ADENOCARCINOMA, SQUAMOUS CELL CARCINOMA) was “active; positive” and the carcinogen call (Species: RAT, Strain/Sex: WISTAR/MALE, Route: INHALATION, Dose: 0, 30 UG/M3 DUST 22 HR/D 7 D/WK FOR 18 MO MAINTAINED ON ZN REDUCED DIET (24 PPM) FOR STUDY DURATION (STUDY DURATION: 29, Tumor Site: Type of Lesion: LUNG: ALVEOLAR/BRONCHIOLAR ADENOMA, ADENOCARCINOMA, SQUAMOUS CELL CARCINOMA) was “active; positive”. For the same compound, the carcinogen call (Species: RAT, Strain/Sex: WISTAR/MALE, Route: INHALATION, Dose: 0, 30 UG/M3 FUME 22 HR/D 7 D/WK FOR 18 MO (STUDY DURATION: 31 MO), Tumor Site: Type of Lesion: LUNG: ALVEOLAR/BRONCHIOLAR ADENOMA, ADENOCARCINOMA) was “active; positive”, the carcinogen call (Species: RAT, Strain/Sex: WISTAR/MALE, Route: INHALATION, Dose: 0, 30 UG/M3 OF CADMIUM OXIDE DUST 22 HR/D 7 D/WK FOR 18 MO (STUDY DURATION: 29 MO), Tumor Site: Type of Lesion: LUNG: ALVEOLAR/BRONCHIOLAR ADENOMA, ADENOCARCINOMA) was “active; positive” and the carcinogen call (Species: RAT, Strain/Sex: WISTAR/MALE, Route: INHALATION, Dose: 0, 30 UG/M3 OF CADMIUM OXIDE DUST 22 HR/D 7 D/WK FOR 18 MO (STUDY DURATION: 31 MO), Tumor Site: Type of Lesion: LUNG: ALVEOLAR/BRONCHIOLAR ADENOMA, ADENOCARCINOMA, SQUAMOUS CELL CARCINOMA) was “active; positive”. The carcinogen call (Species: RAT, Strain/Sex: WISTAR/MALE, Route: INHALATION, Dose: 0, 30 UG/M3 OF CADMIUM OXIDE FUME 22 HR/D 7 D/WK FOR 18 MO (STUDY DURATION: 31 MO)) was “inactive; negative”, the carcinogen call (Species: RAT, Strain/Sex: WISTAR/MALE, Route: INHALATION, Dose: 0, 90 UG/M3, 8 HR/D, 5D/WK FOR 7.1 MO (STUDY DURATION: 7.1 MO)) was “inactive; negative” and the carcinogen call (Species: RAT, Strain/Sex: WISTAR/MALE, Route: INHALATION, Dose: 0, 90 UG/M3 CADMIUM OXIDE DUST 22 HR/D 7 D/WK FOR 7 MO (STUDY DURATION: 31 MO), Tumor Site: Type of Lesion: LUNG: ADENOMA OR ADENOCARCINOMA OR SQUAMOUS CELL TUMOR) was “active; positive”. The carcinogen call (Species: RAT, Strain/Sex: WISTAR/MALE, Route: INHALATION, Dose: 0, 90 UG/M3 CADMIUM OXIDE DUST 22 HR/D 7 D/WK FOR 7 MO (STUDY DURATION: 31 MO), Tumor Site: Type of Lesion: LUNG: TUMOR) was “active; positive”, the carcinogen call (Species: RAT, Strain/Sex: WISTAR/MALE, Route: INHALATION, Dose: 0, 90 UG/M3 CADMIUM OXIDE DUST DISCONTINOUS EXPOSURE FOR 40 HR/WK FOR 6 MO (STUDY DURATION: 31 MO), Tumor Site: Type of Lesion: LUNG: TUMOR) was “active; positive” and the carcinogen call (Species: RAT, Strain/Sex: WISTAR/MALE, Route: INHALATION, Dose: 0, 90 UG/M3 DUST 8 HR/D 5 D/WK FOR 6 MO (STUDY DURATION: 31 MO), Tumor Site: Type of Lesion: LUNG: ALVEOLAR/BRONCHIOLAR ADENOMA, ADENOCARCINOMA, SQUAMOUS CELL CARCINOMA) was “active; positive”. The carcinogen call (Species: RAT, Strain/Sex: WISTAR/MALE, Route: INHALATION, Dose: 0, 90 UG/M3 DUST 22 HR/D 7 D/WK FOR 7 MO (STUDY DURATION: 31 MO), Tumor Site: Type of Lesion: LUNG: ALVEOLAR/BRONCHIOLAR ADENOMA, ADENOCARCINOMA) was “active; positive”, the carcinogen call (Species: RAT, Strain/Sex: WISTAR/MALE, Route: INHALATION, Dose: 0, 90 UG/M3 OF CADMIUM OXIDE DUST 22 HR/D 7 D/WK FOR 7 MO (STUDY DURATION: 31 MO), Tumor Site: Type of Lesion: LUNG: ALVEOLAR/BRONCHIOLAR ADENOMA, ADENOCARCINOMA) was “active; positive” and the carcinogen call (Species: RAT, Strain/Sex: WISTAR/MALE, Route: INHALATION, Dose: 0, 90 UG/M3 OF CADMIUM OXIDE DUST 40 HR/WK FOR 6 MO (STUDY DURATION: 31 MO)) was “inactive; negative”.
